Patent US11529361B2, “Halogenated salicylanilides for treating Clostridium infections” (UNION therapeutics A/S, priority 2015, dated 2022)
Values after ≈ are worked out from the molar mass of the structure shown. Read-outs that look alike come from different tables or passages of the source.

Legend:
[1] = system: C. difficile clinical isolates; assay: MIC determination by microbroth dilution per CLSI guideline (Example 1); type: cell-based, Clostridium difficile; settings: Clostridioides difficile
[2] = system: 24 clinical isolate strains of C. difficile; assay: Additional MIC determinations, antibacterial activity by OD600 (Example 3); type: cell-based, Clostridium difficile
[3] = system: rats; settings: p.o.; cited from earlier work
[4] = system: Clostridium difficile infection (CDAD); settings: phase III clinical trials, versus vancomycin; cited from earlier work
[5] = system: C. difficile; settings: published data (footnote a); cited from earlier work
[6] = system: Clostridium difficile 7-6011209; type: cell-based
[7] = Table 3, strain 7-6011209, read-out: C. difficile Strain 7-6011209 MIC
[8] = Table 3, strain 12055, read-out: C. difficile Strain 12055 MIC

Compound: CC(=O)Oc1c(I)cc(I)cc1C(=O)Nc1ccc(Cl)cc1 [Clioxanide]
- MIC [1, 7]: 0.031 µg/mL (≈ 0.0572 µM)
- MIC [1, 8]: < 0.08 µg/mL
- MIC ([2]; strain 7-5085357 (ST028)): < 0.008 µg/mL
- MIC ([2]; strain 7-6011209 (ST002)): < 0.008 µg/mL
- MIC ([2]; strain 7-6778909 (ST016)): < 0.008 µg/mL
- MIC ([2]; strain 7-6854508 (ST013)): < 0.008 µg/mL
- MIC ([2]; strain 7-6870430 (ST001)): < 0.008 µg/mL
- MIC ([2]; strain 7-7104022 (ST103)): < 0.008 µg/mL
- MIC ([2]; strain 7-7116411 (ST005)): 0.125 µg/mL (≈ 0.231 µM)
- MIC ([2]; strain 7-7124449 (ST009)): < 0.008 µg/mL
- MIC ([2]; strain 7-7149204 (ST006)): < 0.008 µg/mL
- MIC ([2]; strain 7-7150288 (ST003)): < 0.008 µg/mL
- MIC ([2]; strain 7-7150318 (ST059)): < 0.008 µg/mL
- MIC ([2]; strain 7-7150628 (ST034)): < 0.008 µg/mL
- MIC ([2]; strain 7-7150997 (ST049)): < 0.008 µg/mL
- MIC ([2]; strain 7-7154992 (ST139)): < 0.008 µg/mL
- MIC ([2]; strain 7-7200552 (ST017)): < 0.008 µg/mL
- MIC ([2]; strain 7-7363761 (ST008)): < 0.008 µg/mL
- MIC ([2]; strain 12055): < 0.008 µg/mL
- MIC ([2]; strain 12060): < 0.008 µg/mL
- MIC ([2]; strain 12061): < 0.008 µg/mL
- MIC ([2]; strain 12062): < 0.008 µg/mL
- MIC ([2]; strain 12063): < 0.008 µg/mL
- MIC ([2]; strain 12064): < 0.008 µg/mL
- MIC ([2]; strain 12065): < 0.008 µg/mL
- MIC ([2]; strain 12066): 0.063 µg/mL (≈ 0.116 µM)

Compound: Cc1cc(C(C#N)c2ccc(Cl)cc2)c(Cl)cc1NC(=O)c1cc(I)cc(I)c1O (stereo not drawn) [Closantel]
- LD50 [3]: 262 to 342 mg/kg
- MIC [1, 7]: 0.125 µg/mL (≈ 0.189 µM)
- MIC [1, 8]: 0.125 µg/mL (≈ 0.189 µM)
- MIC ([2]; strain 7-5085357 (ST028)): 0.016 µg/mL (≈ 0.0241 µM)
- MIC ([2]; strain 7-6011209 (ST002)): 0.016 µg/mL (≈ 0.0241 µM)
- MIC ([2]; strain 7-6778909 (ST016)): 0.031 µg/mL (≈ 0.0468 µM)
- MIC ([2]; strain 7-6854508 (ST013)): 0.25 µg/mL (≈ 0.377 µM)
- MIC ([2]; strain 7-6870430 (ST001)): 0.031 µg/mL (≈ 0.0468 µM)
- MIC ([2]; strain 7-7104022 (ST103)): 0.25 µg/mL (≈ 0.377 µM)
- MIC ([2]; strain 7-7116411 (ST005)): 0.25 µg/mL (≈ 0.377 µM)
- MIC ([2]; strain 7-7124449 (ST009)): 0.25 µg/mL (≈ 0.377 µM)
- MIC ([2]; strain 7-7149204 (ST006)): 0.31 µg/mL (≈ 0.468 µM)
- MIC ([2]; strain 7-7150288 (ST003)): 0.031 µg/mL (≈ 0.0468 µM)
- MIC ([2]; strain 7-7150318 (ST059)): 0.63 µg/mL (≈ 0.95 µM)
- MIC ([2]; strain 7-7150628 (ST034)): 0.063 µg/mL (≈ 0.095 µM)
- MIC ([2]; strain 7-7150997 (ST049)): 0.016 µg/mL (≈ 0.0241 µM)
- MIC ([2]; strain 7-7154992 (ST139)): 0.063 µg/mL (≈ 0.095 µM)
- MIC ([2]; strain 7-7200552 (ST017)): 0.5 µg/mL (≈ 0.754 µM)
- MIC ([2]; strain 12055): 0.063 µg/mL (≈ 0.095 µM)
- MIC ([2]; strain 12060): 0.125 µg/mL (≈ 0.189 µM)
- MIC ([2]; strain 12061): 0.063 µg/mL (≈ 0.095 µM)
- MIC ([2]; strain 12062): 0.063 µg/mL (≈ 0.095 µM)
- MIC ([2]; strain 12063): 0.031 µg/mL (≈ 0.0468 µM)
- MIC ([2]; strain 12064): 0.031 µg/mL (≈ 0.0468 µM)
- MIC ([2]; strain 12065): 0.063 µg/mL (≈ 0.095 µM)
- MIC ([2]; strain 12066): 0.5 µg/mL (≈ 0.754 µM)

Compound: CCc1c(Cl)c(O)c(Cl)c(O)c1C(=O)O[C@H]1[C@H](O)[C@H](OC)[C@H](OC/C2=C\C=C\C[C@H](O)/C(C)=C/[C@H](CC)[C@@H](O[C@@H]3OC(C)(C)[C@@H](OC(=O)C(C)C)[C@H](O)[C@@H]3O)/C(C)=C/C(C)=C/C[C@@H]([C@@H](C)O)OC2=O)O[C@@H]1C [Fidaxomycin]
- clinical cure of CDAD [4]: non-inferior to vancomycin
- preventing recurrence of CDAD [4]: superior to vancomycin
- Highest MIC observed [5]: 1 ^ μg/mL
- MIC90 [5]: 0.5^a μg/mL
- formation of heat-resistant spores over time [6]: suppressed formation of spores for the first 48 hours of the study
- MIC ([2]; strain 7-5085357 (ST028)): < 0.008 µg/mL
- MIC ([2]; strain 7-6011209 (ST002)): < 0.008 µg/mL
- MIC ([2]; strain 7-6778909 (ST016)): < 0.008 µg/mL
- MIC ([2]; strain 7-6854508 (ST013)): < 0.008 µg/mL
- MIC ([2]; strain 7-6870430 (ST001)): 0.016 µg/mL (≈ 0.0151 µM)
- MIC ([2]; strain 7-7104022 (ST103)): < 0.008 µg/mL
- MIC ([2]; strain 7-7116411 (ST005)): 2 µg/mL (≈ 1.89 µM)
- MIC ([2]; strain 7-7124449 (ST009)): < 0.008 µg/mL
- MIC ([2]; strain 7-7149204 (ST006)): < 0.008 µg/mL
- MIC ([2]; strain 7-7150288 (ST003)): < 0.008 µg/mL
- MIC ([2]; strain 7-7150318 (ST059)): < 0.008 µg/mL
- MIC ([2]; strain 7-7150628 (ST034)): < 0.008 µg/mL
- MIC ([2]; strain 7-7150997 (ST049)): < 0.008 µg/mL
- MIC ([2]; strain 7-7154992 (ST139)): < 0.008 µg/mL
- MIC ([2]; strain 7-7200552 (ST017)): < 0.008 µg/mL
- MIC ([2]; strain 7-7363761 (ST008)): < 0.008 µg/mL
- MIC ([2]; strain 12055): < 0.008 µg/mL
- MIC ([2]; strain 12060): < 0.008 µg/mL
- MIC ([2]; strain 12061): < 0.008 µg/mL
- MIC ([2]; strain 12062): < 0.008 µg/mL
- MIC ([2]; strain 12063): < 0.008 µg/mL
- MIC ([2]; strain 12064): < 0.008 µg/mL
- MIC ([2]; strain 12065): < 0.008 µg/mL
- MIC ([2]; strain 12066): < 0.008 µg/mL

Compound: Cc1ncc([N+](=O)[O-])n1CCO [Metronidazole]
- Highest MIC observed [5]: >32^a μg/mL
- MIC90 [5]: 1^a μg/mL
- MIC ([2]; strain 7-5085357 (ST028)): 1 µg/mL (≈ 5.84 µM)
- MIC ([2]; strain 7-6011209 (ST002)): 0.031 µg/mL (≈ 0.181 µM)
- MIC ([2]; strain 7-6778909 (ST016)): 0.25 µg/mL (≈ 1.46 µM)
- MIC ([2]; strain 7-6854508 (ST013)): 1 µg/mL (≈ 5.84 µM)
- MIC ([2]; strain 7-6870430 (ST001)): 1 µg/mL (≈ 5.84 µM)
- MIC ([2]; strain 7-7104022 (ST103)): > 8 µg/mL
- MIC ([2]; strain 7-7116411 (ST005)): > 16 µg/mL
- MIC ([2]; strain 7-7124449 (ST009)): 2 µg/mL (≈ 11.7 µM)
- MIC ([2]; strain 7-7149204 (ST006)): 0.5 µg/mL (≈ 2.92 µM)
- MIC ([2]; strain 7-7150288 (ST003)): 0.063 µg/mL (≈ 0.368 µM)
- MIC ([2]; strain 7-7150318 (ST059)): 1 µg/mL (≈ 5.84 µM)
- MIC ([2]; strain 7-7150628 (ST034)): 0.5 µg/mL (≈ 2.92 µM)
- MIC ([2]; strain 7-7150997 (ST049)): 0.031 µg/mL (≈ 0.181 µM)
- MIC ([2]; strain 7-7154992 (ST139)): 1 µg/mL (≈ 5.84 µM)
- MIC ([2]; strain 7-7200552 (ST017)): 2 µg/mL (≈ 11.7 µM)
- MIC ([2]; strain 12055): 1 µg/mL (≈ 5.84 µM)
- MIC ([2]; strain 12060): 1 µg/mL (≈ 5.84 µM)
- MIC ([2]; strain 12061): 1 µg/mL (≈ 5.84 µM)
- MIC ([2]; strain 12063): 0.25 µg/mL (≈ 1.46 µM)
- MIC ([2]; strain 12064): 0.031 µg/mL (≈ 0.181 µM)
- MIC ([2]; strain 12065): 1 µg/mL (≈ 5.84 µM)
- MIC ([2]; strain 12066): 1 µg/mL (≈ 5.84 µM)
